In paper PMC4738305, “Metabolism and Disposition of Aditoprim in Swine, Broilers, Carp and Rats” (Scientific Reports, 2016):
Values joined by “and” are separate entries in the source; they are usually repeats but may differ in a detail not shown here. Equal values may be shown once.

Columns and labels:
[1] = Tissue distribution and elimination of total radioactivity (total residues) after oral ^3H-ADP for 7 d; format: in vivo, swine
Procedure: (§1) (0.1 Ci/g) through oral gavage for 7 consecutive days. All the animals were housed on the basis of their group in the cages or aquaria throughout the whole study period. A group of animals was slaughtered through exsanguination under diethyl ether inhalation of anesthesia in the period of 6 h, 1, 3, 7, 14, and 21 d after the administration. The blood samples were immediately collected into the heparinized tubes and was centrifuged at 1920 × g at 4 °C for 10 min to obtain the plasma. The tissues from the heart, liver, spleen, lung, kidney, craw (broilers), stomach, intestine, fat, skin, muscle, thymus, pancreas, bile, bladder, hair (scale for carp), genital gland, adrenal glands, swim bladder (carp), brain, lymph, and bursa (broilers) were carefully excised and collected. The tissues were thoroughly rinsed with the deionized water to remove the residuary blood, blotted to dryness, and finally to perform the homogenization. In order to avoid cross-contamination the dissecting instruments were washed during the tissue procurements. The blank tissues were collected in order to provide control matrices. The total radioactivity levels in each sample were determined through LSC. The samples extracted from the plasma, bile, and tissues of the liver, kidney, muscle, and fat/skin were analyzed through LC/MS-IT-TOF and v. ARC radiometric detection for metabolite profiling.
(§2) Measurements of the total radioactivity in each sample were conducted by Packard Tri-Carb 2900 TR liquid scintillation counter (PerkinElmer Life and Analytical Sciences). The detection time was 10 min for two cycles. The scintillation counter data were automatically corrected for counting efficiency by instrument-stored quench curve which was drawn with a series of sealed quenched […] standards. The actual radioactivity of each sample was calculated by subtracting the background value form the mean radioactivity in two blank samples. All the samples were analyzed in duplicate if the sample size allowed this. If the results were differed by more than 10% from the mean value, the samples were reanalyzed. The samples with LSC counts less than 2-fold of the level of the running background were considered to contain insufficient radioactivity for reliable quantification.
(§3) Aliquots of liquid samples (urine, plasma, bile and raised water, 200 μL) were mixed with 10 mL of Ultima Gold^TM scintillation fluid for the direct analysis by LSC. Aliquots of solid samples (feces and tissues, 200 mg) were digested overnight with 2 mL tissue solubilizer at 50 °C in a shaking water bath, followed by adding 200 μL of 0.1 mol/L EDTA-Na and 200 μL of 30% H2O2, and was bathed at 50 °C for 2 h to bleach. The obtained transparent liquid were mixed with 10 mL of scintillation fluid and finally were counted by LSC. The digestion efficiency was determined by using the blank samples spiked with ^3 H standard for digestion, and the measured radioactivity content in the digested samples were adjusted by using the digestion efficiency values.
(§4) The concentrations of ADP and/or its metabolites were analyzed by using the following equation: C = L/(2.22 × 10^9 × RM), where C is the concentration of ADP or/and its metabolites (mg/kg), L is the LSC count (dpm), R is the specific activity of the administered dose (0.1 Ci/g), and M is the weight or volume of samples (kg or L). The results are expressed as mean ± SD. The elimination kinetics of terminal phase for ADP and its metabolites were conducted by using the WinNonlin linear regression program (Pharsight corporation, Statistical consultants, Inc., Kentucky, USA).

[2] = as above; format: in vivo, carp; set-up: Ke of total residues: unit not given here
Procedure: as §1, §2, §3, §4

Compound: [3H]c1c(Cc2cnc(N)nc2N)cc(OC)c(N(C)C)c1OC [^3H-ADP]
- Ke of total residues ([1]; swine Adrenal): 0.28
- Ke of total residues ([1]; swine Bile): 0.71
- Ke of total residues ([1]; swine Bladder): 0.50
- Ke of total residues ([1]; swine Blood): 0.48
- Ke of total residues ([1]; swine Clothing hair): 0.17
- Ke of total residues ([1]; swine Fat): 0.20
- Ke of total residues ([1]; swine Heart): 0.29
- Ke of total residues ([1]; swine Kidney): 0.21
- Ke of total residues ([1]; swine Large Intestine): 0.47
- Ke of total residues ([1]; swine Liver): 0.16
- Ke of total residues ([1]; swine Lung): 0.28
- Ke of total residues ([1]; swine Lymph): 0.46
- Ke of total residues ([1]; swine Muscle): 0.41
- Ke of total residues ([1]; swine Pancreas): 0.27
- Ke of total residues ([1]; swine Skin): 0.42
- Ke of total residues ([1]; swine Small Intestine): 0.54
- Ke of total residues ([1]; swine Spleen): 0.20
- Ke of total residues ([1]; swine Stomach): 0.52
- Ke of total residues ([1]; swine Thymus): 0.37
- Ke of total residues ([2]; carp Bile): 0.38
- Concentrations of total residues ([2]; carp Bile, 0.25 d after 5 mg/kg b. w. for 7 days): 334.6 ± 69.0 mg/kg and 334.60 ± 69.02 mg/kg
- Concentrations of total residues ([2]; carp Bile, 1 d after 5 mg/kg b. w. for 7 days): 89.59 ± 3.87 mg/kg
- Concentrations of total residues ([2]; carp Bile, 3 d after 5 mg/kg b. w. for 7 days): 24.33 ± 1.91 mg/kg
- Concentrations of total residues ([2]; carp Bile, 7 d after 5 mg/kg b. w. for 7 days): 1.34 ± 0.29 mg/kg
- Concentrations of total residues ([2]; carp Bile, 14 d after 5 mg/kg b. w. for 7 days): 0.13 ± 0.05 mg/kg
- Concentrations of total residues ([2]; carp Bile, 21 d after 5 mg/kg b. w. for 7 days): 0.01 ± 0.00 mg/kg
- Ke of total residues ([2]; carp Blood): 0.20
- Concentrations of total residues ([2]; carp Blood, 0.25 d after 5 mg/kg b. w. for 7 days): 1.73 ± 0.18 mg/kg
- Concentrations of total residues ([2]; carp Blood, 1 d after 5 mg/kg b. w. for 7 days): 1.06 ± 0.10 mg/kg
- Concentrations of total residues ([2]; carp Blood, 3 d after 5 mg/kg b. w. for 7 days): 0.40 ± 0.08 mg/kg
- Concentrations of total residues ([2]; carp Blood, 7 d after 5 mg/kg b. w. for 7 days): 0.19 ± 0.02 mg/kg
- Concentrations of total residues ([2]; carp Blood, 14 d after 5 mg/kg b. w. for 7 days): 0.05 ± 0.01 mg/kg
- Ke of total residues ([2]; carp Branchia): 0.23
- Concentrations of total residues ([2]; carp Branchia, 0.25 d after 5 mg/kg b. w. for 7 days): 12.73 ± 1.93 mg/kg
- Concentrations of total residues ([2]; carp Branchia, 1 d after 5 mg/kg b. w. for 7 days): 5.46 ± 0.84 mg/kg
- Concentrations of total residues ([2]; carp Branchia, 3 d after 5 mg/kg b. w. for 7 days): 1.66 ± 0.08 mg/kg
- Concentrations of total residues ([2]; carp Branchia, 7 d after 5 mg/kg b. w. for 7 days): 0.22 ± 0.04 mg/kg
- Concentrations of total residues ([2]; carp Branchia, 14 d after 5 mg/kg b. w. for 7 days): 0.05 ± 0.00 mg/kg
- Concentrations of total residues ([2]; carp Branchia, 21 d after 5 mg/kg b. w. for 7 days): 0.01 ± 0.00 mg/kg
- Ke of total residues ([2]; carp Colla piscis): 0.24
- Concentrations of total residues ([2]; carp Colla piscis, 0.25 d after 5 mg/kg b. w. for 7 days): 2.78 ± 0.76 mg/kg
- Concentrations of total residues ([2]; carp Colla piscis, 1 d after 5 mg/kg b. w. for 7 days): 1.50 ± 0.22 mg/kg
- Concentrations of total residues ([2]; carp Colla piscis, 3 d after 5 mg/kg b. w. for 7 days): 0.41 ± 0.04 mg/kg
- Concentrations of total residues ([2]; carp Colla piscis, 7 d after 5 mg/kg b. w. for 7 days): 0.10 ± 0.02 mg/kg
- Concentrations of total residues ([2]; carp Colla piscis, 14 d after 5 mg/kg b. w. for 7 days): 0.03 ± 0.01 mg/kg
- Ke of total residues ([2]; carp Heart): 0.30
- Concentrations of total residues ([2]; carp Heart, 0.25 d after 5 mg/kg b. w. for 7 days): 5.37 ± 0.50 mg/kg
- Concentrations of total residues ([2]; carp Heart, 1 d after 5 mg/kg b. w. for 7 days): 2.58 ± 0.57 mg/kg
- Concentrations of total residues ([2]; carp Heart, 3 d after 5 mg/kg b. w. for 7 days): 1.11 ± 0.08 mg/kg
- Concentrations of total residues ([2]; carp Heart, 7 d after 5 mg/kg b. w. for 7 days): 0.34 ± 0.05 mg/kg
- Concentrations of total residues ([2]; carp Heart, 14 d after 5 mg/kg b. w. for 7 days): 0.14 ± 0.02 mg/kg
